Measurements published in paper PMC9022229, “Induction of Paraptosis by Cyclometalated Iridium Complex-Peptide Hybrids and CGP37157 via a Mitochondrial Ca^2+ Overload Triggered by Membrane Fusion between Mitochondria and the Endoplasmic Reticulum” (Biochemistry, 2022).

Key:
[1] = test system: Jurkat cells; conditions: for Effect of Ca2+ channel inhibitor on cell death induced by 4 / Effect of Ca2+ channel inhibitor on cell death induced by celastrol: inhibitor 1 h (2-APB 50 μM, RuRed 10 μM, ER-000444793 10 μM); for Effect of Ca2+ channel inhibitor on cell death induced by 4: then 4 5 μM 3 h, microscopy and MTT; for Effect of Ca2+ channel inhibitor on cell death induced by celastrol: then celastrol 1 μM 12 h; for Effect of Ca2+ channel inhibitor on cell death induced by celastrol / Effect of PCD inhibitor on cell death induced by CGP37157 / Effect of GTPase inhibitor on cytotoxicity by 4 / Effect of GTPase inhibitor on cytotoxicity by CGP37157: MTT; for Effect of PCD inhibitor on cell death induced by CGP37157: Z-VAD-fmk 30 μM, Nec-1 30 μM, 3-MA 5 mM, CGP37157 100 µM, 12 h, three independent experiments; for Effect of GTPase inhibitor on cytotoxicity by 4 / Effect of GTPase inhibitor on cytotoxicity by CGP37157: inhibitor 1 h (dynasore, Mdivi-1 10–30 μM, CID1067700 1–10 μM); for Effect of GTPase inhibitor on cytotoxicity by 4: then 4 5 μM 1 or 3 h; for Effect of GTPase inhibitor on cytotoxicity by CGP37157: then CGP37157 100 μM 12 h
[2] = test system: mitofusin 1 (MFN1); experiment: Western blot analysis of MFN1 in Jurkat cells; format: cell-based; conditions: for MFN1 band intensity relative to absence of compound: Figure S8C, 24 h
Method: (§1) In a 1.5 mL Eppendorf tube, Jurkat cells (1.0 × 10^6 cells) were incubated in the presence of 4 ([…]), CGP37157 (100 μM for 0–24 h or 0–100 μM for 12 h), and celastrol (0–10 μM for 24 h or 1 μM for 0–24 h) at 37 °C under 5% CO2. After the cells had been washed twice with PBS, the proteins were extracted by using RIPA buffer (Nacalai Tesque) and quantified using a Pierce BCA Protein Assay Kit (Thermo Scientific). Proteins (7.5 μg/well) for MFNs and DRP1 and proteins (5.0 μg/well) for GAPDH were used for sodium dodecyl sulfate–polyacrylamide gel electrophoresis (SDS–PAGE) (7.5% for MFNs and DRP1 and 10% for GAPDH) (Bio-Rad). After SDS–PAGE, the proteins were transferred to a polyvinylidene fluoride membrane (Merck Millipore) by using a semi dry blotter (Bio-Rad). The membrane was blocked with Blocking One solution (Nacalai Tesque) for 30 min at room temperature. After being blocked, the membrane was washed three times with 1× TBST and treated with primary antibodies overnight (at a dilution of 1/1000 for MFNs and DRP1 or 1/2000 for GAPDH) in a signal enhancer HIKARI-solution A (Nacalai Tesque). The membrane was washed three times with 1× TBST and treated with the anti-mouse or anti-rabbit IgG HRP-conjugated secondary antibody (at a dilution of 1/4000 for MFNs and DRP1 or 1/10000 for GAPDH) in 1× TBST for 60 min at room temperature. The protein signal was spotted with a Chemi-Lumi One Ultra solution (Nacalai Tesque) using the ChemiDoc MP system (Bio-Rad). […]

[3] = test system: mitofusin 2 (MFN2); experiment: Western blot analysis of MFN2 in Jurkat cells; format: cell-based; conditions: for MFN2 band intensity relative to absence of compound: Figure S8C, 24 h
Method: as §1

[4] = test system: dynamin-related protein 1 (DRP1); experiment: Western blot analysis of DRP1 in Jurkat cells; format: cell-based; conditions: for DRP1 band intensity relative to absence of compound: Figure S8C, 24 h
Method: In a 1.5 mL Eppendorf tube, Jurkat cells (1.0 × 10^6 cells) were incubated in the presence of 4 ([…]), CGP37157 (100 μM for 0–24 h or 0–100 μM for 12 h), and celastrol (0–10 μM for 24 h or 1 μM for 0–24 h) at 37 °C under 5% CO2. After the cells had been washed twice with PBS, the proteins were extracted by using RIPA buffer (Nacalai Tesque) and quantified using a Pierce BCA Protein Assay Kit (Thermo Scientific). Proteins (7.5 μg/well) for MFNs and DRP1 and proteins (5.0 μg/well) for GAPDH were used for sodium dodecyl sulfate–polyacrylamide gel electrophoresis (SDS–PAGE) (7.5% for MFNs and DRP1 and 10% for GAPDH) (Bio-Rad). After SDS–PAGE, the proteins were transferred to a polyvinylidene fluoride membrane (Merck Millipore) by using a semi dry blotter (Bio-Rad). The membrane was blocked with Blocking One solution (Nacalai Tesque) for 30 min at room temperature. After being blocked, the membrane was washed three times with 1× TBST and treated with primary antibodies overnight (at a dilution of 1/1000 for MFNs and DRP1 or 1/2000 for GAPDH) in a signal enhancer HIKARI-solution A (Nacalai Tesque). The membrane was washed three times with 1× TBST and treated with the anti-mouse or anti-rabbit IgG HRP-conjugated secondary antibody (at a dilution of 1/4000 for MFNs and DRP1 or 1/10000 for GAPDH) in 1× TBST for 60 min at room temperature. The protein signal was spotted with a Chemi-Lumi One Ultra solution (Nacalai Tesque) using the ChemiDoc MP system (Bio-Rad).

[5] = test system: Jurkat cells; experiment: Mitochondria-ER membrane fusion, co-staining with MitoTracker Green and ER-Tracker Red; format: cell-based; conditions: celastrol 1 μM, 12 h
Method: To verify this hypothesis, mitochondria and the ER were stained with both MitoTracker Green and ER-Tracker Red in the presence of 4, CGP37157, and celastrol (Figure 8). Jurkat cells were stained with MitoTracker Green (0.5 μM) and ER-Tracker Red (1 μM) and then treated with 4 (5 μM) for 10–30 min (time-dependent microscopic images are presented in Figure S5). […] With regard to CGP37157 and celastrol, Jurkat cells were stained with MitoTracker Green (0.5 μM) and ER-Tracker Red (1 μM) and then treated with CGP37157 (100 μM) and celastrol (1 μM) for 1–24 h (Figure 8 and Figure S5).
In a 1.5 mL Eppendorf tube, Jurkat cells (2.0 × 10^5 cells) were stained with MitoTracker Green (0.5 μM) for 1 h at 37 °C under 5% CO2 and then ER-Tracker Red (1 μM) for 1 h at 37 °C under 5% CO2 in 10% FBS/RPMI 1640 medium (100 μL). After being washed with PBS, the cells were treated with 4 (5 μM) in 10% FBS/RPMI 1640 medium (100 μL) for 0–30 min at 37 °C under 5% CO2. For CGP37157 and celastrol, Jurkat cells were treated with CGP37157 (100 μM) or celastrol (1 μM) in 10% FBS/RPMI 1640 medium (100 μL) for 0–24 h, after which the cells were stained with MitoTracker Green (0.5 μM) for 1 h at 37 °C under 5% CO2 and then ER-Tracker Red (1 μM) for 1 h at 37 °C under 5% CO2 in PBS. The cells were washed with PBS and observed by confocal microscopy (Fluoview, FV-1000, Olympus) using a Greiner CELLview dish (35 mm × 10 mm). Excitation at 473 nm and emission from 485 to 545 nm were used for MitoTracker Green. Excitation at 559 nm and emission from 570 to 620 nm were used for ER-Tracker Red. The exposure time was 20 μs/pixel.

[6] = test system: Jurkat cells; experiment: TEM analysis of cytoplasmic vacuolization; format: cell-based; conditions: celastrol 1 μM, 24 h
Method: The morphological changes in Jurkat cells induced by CGP37157 (Figure 3B) were similar to those induced by 4 (Figure 1B) and confirmed in detail by TEM (transmission electron microscopy). Jurkat cells were treated with CGP37157 (100 μM) for 12 h, prefixed with glutaraldehyde and postfixed with osmium tetroxide (OsO4), and included in Poly 812 resin. The resulting samples were sliced and then observed by TEM. […] Similar TEM images were reported with respect to paraptosis-inducing natural compounds by some research groups: (i) paraptosis in MDA-MB 435S cells,[17] HeLa cells,[18] and Jurkat cells (Figure 4d and in our previous publications)[56]−[58] induced by celastrol, (ii) paraptosis in HeLa cells induced by 8-p-hydroxybenzoyl tovarol,[23] and (iii) paraptosis in A2780 cells and SKOV-3 cells induced by morusin.[22] Therefore, we believe that Jurkat cells undergo vacuolization in the paraptotic processes induced by 4 and CGP37157, as well as celastrol.
In a 1.5 mL Eppendorf tube, Jurkat cells (3.0 × 10^6 cells) were incubated with 4 (5 μM for 3 h), CGP37157 (100 μM for 12 h), and celastrol (1 μM for 24 h) in 10% FBS/RPMI 1640 medium at 37 °C under 5% CO2. After centrifugation (2000 rpm, 3 min, 4 °C), the cells were washed twice with PBS, prefixed with glutaraldehyde (2.5%) at 4 °C for 40 min, and then washed twice with PBS. Osmium tetroxide (1%) was used for postfixation, and the solution was incubated at 4 °C for 30 min. The cells were washed with PBS, included in an agarose gel, and dehydrated by using 50–100% and anhydrous EtOH. The cells were embedded into Poly 812 resin (Nisshin EM Co. Ltd.) at 60 °C for 3 days. The resin was sliced with a glass knife (150 nm thickness) on an ultramicrotome (EM UC6, Leica), and the samples were stained with EM stainer (Nisshin EM Co. Ltd.) and observed on TEM instrument (H-7650, Hitachi) with electron irradiation at 100 kV.

[7] = test system: MFN1- and/or MFN2-KD Jurkat cells; experiment: MTT assay of MFN1- and/or MFN2-KD Jurkat cells; format: cell-based; conditions: siRNA 10 nM, celastrol 1 µM, 12 h, three independent experiments
Method: The roles of MFNs in the cell death induced by 4 and CGP37157 were examined by using small interfering RNA (siRNA) for MFN1 and MFN2 to knock down (KD) these proteins. […] The cytotoxicity of 4 and CGP37157 against MFN1- and/or MFN2-KD Jurkat cells was evaluated by MTT assays. […] The effect of a negative control siRNA (NCsiRNA) on the expression levels of MFNs and the cell viability of Jurkat cells was negligible, implying that MFNs are […] to the paraptosis induced by 4 and CGP37157. It should be noted that the treatment with siRNA at 5 nM for 72 h was toxic against Jurkat cells in the presence of 4 and CGP37157, although the efficiency of knockdown of these proteins by siRNA could be improved by increasing the incubation time, as shown in Figure S11.
To a solution of transfection reagent (INTERFERin, 5 μL) in OPTI-MEM (0.3 mL) in a 1.5 mL Eppendorf tube was added siRNA (10 μM, 1 or 2 μL) in H2O, and the resulting solution was allowed to stand for 15 min at room temperature. The resulting solution was then added to Jurkat cells (2.0 × 10^5 cells/mL, 1.5 mL) in 10% FBS/RPMI 1640 medium that had been seeded on a 12-well plate and incubated overnight at 37 °C under 5% CO2 (the final concentration of siRNA was 5 or 10 nM), and the resulting solution was incubated for 48 or 72 h at 37 °C under 5% CO2. The cells were collected by centrifugation (2000 rpm, 3 min, 4 °C), and the expression levels of MFNs were evaluated by Western blot analysis as described above. The cytotoxicity of 4 (3 or 5 μM), CGP37157 (50 or 100 μM), and celastrol (1 μM) against MFNs-KD Jurkat cells was evaluated by MTT assays as described above.

[8] = celastrol 1 μM 0–24 h or 0–10 μM 24 h

Compound: NCCOB(c1ccccc1)c1ccccc1 [2-APB, 2-Aminoethoxydiphenyl borate]
- Effect of Ca2+ channel inhibitor on cell death induced by 4 [1]: negligible inhibitory effects
- Effect of Ca2+ channel inhibitor on cell death induced by celastrol [1]: negligible inhibitory effects

Compound: Cn1cnc(N)c2ncnc1-2 [3-methyladenine]
- Effect of PCD inhibitor on cell death induced by CGP37157 [1]: negligible inhibition

Compound: CC1(C)Cc2c(sc(NC(=S)NC(=O)c3ccccc3)c2C(=O)O)CO1 [CID1067700]
- Effect of GTPase inhibitor on cytotoxicity by 4 [1]: negligible effect
- Effect of GTPase inhibitor on cytotoxicity by CGP37157 [1]: negligible effect

Compound: O=C(Nc1ccccc1Cc1ccccc1)c1cc(=O)[nH]c2ccccc12 [ER-000444793]
- Effect of Ca2+ channel inhibitor on cell death induced by 4 [1]: negligible inhibitory effects
- Effect of Ca2+ channel inhibitor on cell death induced by celastrol [1]: negligible inhibitory effects

Compound: COc1cc(-n2c(=S)[nH]c3ccccc3c2=O)c(Cl)cc1Cl [Mdivi-1]
- Effect of GTPase inhibitor on cytotoxicity by 4 [1]: negligible effect
- Effect of GTPase inhibitor on cytotoxicity by CGP37157 [1]: negligible effect

Compound: N.N.N.N.N.N.N.N.N.N.N.N.N.N.[Cl-].[Cl-].[Cl-].[Cl-].[Cl-].[Cl-].[O-2].[O-2].[Ru+3].[Ru+3].[Ru+4] [RuRed, ruthenium red]
- Effect of Ca2+ channel inhibitor on cell death induced by 4 [1]: negligible inhibitory effects
- Effect of Ca2+ channel inhibitor on cell death induced by celastrol [1]: negligible inhibitory effects

Compound: CC1=C(O)C(=O)C=C2C1=CC=C1[C@@]2(C)CC[C@@]2(C)[C@@H]3C[C@](C)(C(=O)O)CC[C@]3(C)CC[C@]12C [celastrol]
- MFN1 band intensity relative to absence of compound ([2]; celastrol 1 µM): 0.56
- MFN1 band intensity relative to absence of compound ([2]; celastrol 2 µM): 0.51
- MFN1 band intensity relative to absence of compound ([2]; celastrol 5 µM): 0.45
- MFN1 band intensity relative to absence of compound ([2]; celastrol 8 µM): 0.43
- MFN1 band intensity relative to absence of compound ([2]; celastrol 10 µM): 0.37
- Expression level of MFN1 (Figure 11C, S8C) [2, 8]: decreased
- MFN2 band intensity relative to absence of compound ([3]; celastrol 1 µM): 0.29
- MFN2 band intensity relative to absence of compound ([3]; celastrol 2 µM): 0.21
- MFN2 band intensity relative to absence of compound ([3]; celastrol 5 µM): 0.21
- MFN2 band intensity relative to absence of compound ([3]; celastrol 8 µM): 0.22
- MFN2 band intensity relative to absence of compound ([3]; celastrol 10 µM): 0.15
- Expression level of MFN2 (Figure 11C, S8C) [3, 8]: decreased
- DRP1 band intensity relative to absence of compound ([4]; celastrol 1 µM): 0.92
- DRP1 band intensity relative to absence of compound ([4]; celastrol 2 µM): 0.81
- DRP1 band intensity relative to absence of compound ([4]; celastrol 5 µM): 0.44
- DRP1 band intensity relative to absence of compound ([4]; celastrol 8 µM): 0.20
- DRP1 band intensity relative to absence of compound ([4]; celastrol 10 µM): 0.19
- Expression level of DRP1 (Figure 11C, S8C) [4, 8]: decreased
- Overlap of MitoTracker Green and ER-Tracker Red emission (mitochondria-ER membrane fusion) [5]: negligible
- Morphological change by TEM [6]: cytoplasmic vacuolization
- Effect of knockdown of MFNs on cell death induced by the compound [7]: negligible effect

Compound: CN1C(=O)C(Cc2c[nH]c3ccccc23)NC1=S (stereo not shown) [necrostatin-1]
- Effect of PCD inhibitor on cell death induced by CGP37157 [1]: negligible inhibition

Compound: Benzyloxycarbonyl-Val-Ala-Asp(OMe) fluoromethylketone [Z-VAD-fmk]
- Effect of PCD inhibitor on cell death induced by CGP37157 [1]: weakly inhibited
